Experimental data published in patent US12703836B2, “Mixture of compounds with high molecular weights, obtained from sugar cane wax (Saccharum officinarum L.)” (CENTRO NACIONAL DE INVESTIGACIONES CIENTÍFICAS, priority 2021, dated 2026).

How the values were obtained:
[1] = test system: spinal cord of rabbits with Ischemia/Reperfusion (I/R); test: Histological score of the spinal cord after ischemia/reperfusion; assay type: in vivo, New Zealand rabbits; settings: oral for 10 days: HMWS 200, AcGS 132, AlcG 40, AldG 28, AcGL 200, ASA 60 (table) mg/kg
Experimental: The substances HMWS, AcGS, AlcG, AldG, AcGL and aspirin were prepared as suspensions in an acacia/water vehicle (1%). Once the quarantine was completed, the rabbits were distributed into 8 groups: a negative control that only received vehicle and was not induced ischemia and 7 groups with spinal cord ischemia: a positive control treated only with the vehicle, and 6 groups were treated with HMWS (200 mg/kg), AcGS (132 mg/kg), AlcG (40 mg/kg), AldG (28 mg/kg), AcGL (200 mg/kg), and aspirin (2 mg/kg) as reference substance. All treatments were administered orally via intragastric tubing (1 mL/2 kg body weight) for 10 days.
For the induction of ischemia in the spinal cord, the rabbits were anesthetized with thiopental (20 mg/kg i.v.). The abdomen was depilated, an antiseptic solution was applied, an incision was made in the ventral midline and the retroperitoneal space was penetrated. The aorta and left renal artery were dissected and exposed. The aorta was ligated by placing a clip immediately below the left renal artery for 20 minutes, after which it was removed and the reperfusion period began. […] At 4 and 24 hours of reperfusion, the neurological deficit of the animals was blindly evaluated by 2 independent observers (according to Zivin et al., 1982). […]

[2] = test system: Mongolian gerbils with global brain Ischemia/Reperfusion (I/R); test: Clinical symptom (neurological function) score after global cerebral ischemia by bilateral carotid occlusion/reperfusion; assay type: in vivo; settings: 4 hours after I/R
Excerpt: For the evaluation of the neuroprotective effect of the mixture of high molecular weight substances, the object of the present invention, an experimental model of global cerebral ischemia by occlusion and reperfusion of the carotid arteries was used. The composition of High Molecular Weight Substances (HMWS) obtained in example 1 was subjected to a preclinical test with animals, in which its pharmacological effect was compared with the effects of pure extracts of Fatty Acids in the form of Salts (AcGS), fatty alcohols (AlcG) and high molecular weight aldehydes (AldG), which were administered in the dose equivalent to the proportion in which each one is present in 200 mg/kg of the HMWS Active Ingredient. Furthermore, the effect of HMWS was compared with the effect of pure free fatty acid (AcGL) extract administered at equal doses. […] Once the quarantine was over, the gerbils were distributed into 8 groups: a negative control that only received vehicle and cerebral ischemia (CI) was not induced and 7 groups with induced CI. […] All treatments were administered orally through intragastric intubation (0.5 mL/70 g body weight) 1 hour prior to induction of ischemia. […] For 6 minutes, the number of times the gerbils crossed the different quadrants with their front legs and the number of times they stopped or leaned was quantified.

[3] = test system: rabbits with spinal cord damage induced by Ischemia/Reperfusion (I/R); test: Neurological deficit score in spinal cord ischemia/reperfusion (abdominal aorta occlusion); assay type: in vivo, New Zealand rabbits; settings: lower = better
Experimental: The neuroprotective effect of the HMWS mixture, object of the present invention, was also investigated using an experimental model of induction of ischemia in the spinal cord. […] Furthermore, the effect of HMWS was compared with that of pure extract of free fatty acids (AcGL) administered at equal doses.
The substances HMWS, AcGS, AlcG, AldG, AcGL and aspirin were prepared as suspensions in an acacia/water vehicle (1%). Once the quarantine was completed, the rabbits were distributed into 8 groups: a negative control that only received vehicle and was not induced ischemia and 7 groups with spinal cord ischemia: a positive control treated only with the vehicle, and 6 groups were treated with HMWS (200 mg/kg), AcGS (132 mg/kg), AlcG (40 mg/kg), AldG (28 mg/kg), AcGL (200 mg/kg), and aspirin (2 mg/kg) as reference substance. […]

[4] = test system: rabbits with spinal cord damage induced by Ischemia/Reperfusion (I/R); test: Mortality in spinal cord ischemia/reperfusion; assay type: in vivo, New Zealand rabbits; settings: oral for 10 days: HMWS 200, AcGS 132, AlcG 40, AldG 28, AcGL 200, ASA 2 mg/kg, positive control 80
Experimental: The neuroprotective effect of the HMWS mixture, object of the present invention, was also investigated using an experimental model of induction of ischemia in the spinal cord. The composition obtained in example 2 was subjected to a preclinical test in which its pharmacological effect was compared with the effects of pure extracts of Fatty Acids in the form of Salts (AcGS), fatty alcohols (AlcG) and high molecular weight aldehydes (AldG), which were administered at doses equivalent to that of those respective substances in 200 mg/kg of the HMWS Active Ingredient. Furthermore, the effect of HMWS was compared with that of pure extract of free fatty acids (AcGL) administered at equal doses.
Male New Zealand rabbits (1.8-2.2 kg) were used, which were adapted for 15 days to laboratory conditions (temperature of 20 to 25° C., relative humidity of 60±5%, light/dark cycles of 12 hours), with free access to water and food.
The substances HMWS, AcGS, AlcG, AldG, AcGL and aspirin were prepared as suspensions in an acacia/water vehicle (1%). […]
For the induction of ischemia in the spinal cord, the rabbits were anesthetized with thiopental (20 mg/kg i.v.). […] At 4 and 24 hours of reperfusion, the neurological deficit of the animals was blindly evaluated by 2 independent observers (according to Zivin et al., 1982). […]

In the case of `CC(=O)Oc1ccccc1C(=O)O` [ASA, aspirin], the “Histologic Score (spinal cord, 3 = no injuries, 0 = severe)” value ([1]; 24 hours after reperfusion, positive control 0.00 ± 0.05) is reported as 0.9 ± 0.15, the “Inhibition (%) of histological damage in the spinal cord” value ([1]; I/R) is reported as 30% and the “Inhibition (%) of clinical symptom score” value ([2]; oral HMWS 200, AcGS 132, AlcG 40, AldG 28, AcGL 200, ASA 60 mg/kg, vs positive control) is reported as 86.6%. The “SC score (clinical symptoms, McGraw scale 0-5)” value ([2]; single oral dose 1 hour before ischemia: HMWS (example 1) 200, AcGS 132, AlcG 40, AldG 28, AcGL 200, ASA 60 mg/kg, mean ± SEM, positive control 3.00 ± 0.52) was 0.40 ± 0.35, the “Score (neurological deficit) 4 h” value ([3]; 4 h of reperfusion, oral for 10 days: HMWS (example 2) 200, AcGS 132, AlcG 40, AldG 28, AcGL 200, ASA 2 mg/kg, positive control 0.30 ± 0.17, negative 2 ± 0) was 0.90 ± 0.25 and the “Score (neurological deficit) 24 h” value ([3]; 24 h of reperfusion, oral for 10 days: HMWS 200, AcGS 132, AlcG 40, AldG 28, AcGL 200, ASA 2 mg/kg, positive control 0.15 ± 0.1, negative 2 ± 0) was 0.50 ± 0.24. For the same compound, the “Mortality 24 h (%)” value [4] was 40+ %.
